Results taken from PubChem BioAssay AID2060600 (Molecular Pharmacology Branch, DTP, NCI, 2025).

Tested on: 996289-038-R-J1-PDC complex spheroid viability
Assay: Anticancer human tumor 996289-038-R-J1-PDC patient-derived colon adenocarcinoma cell line growth inhibition [CLK]
Settings: for IC50: curve of first compound; for viability, T/C: stronger effect = lower value
Description: A high-throughput screen of multi-cell type tumor spheroids was designed to identify active combinations of […] and targeted small molecules. Complex spheroids include a stromal component modeled by human endothelial cells (HUVEC) and fibroblasts modeled by human mesenchymal stem cells (MSCs). The concentration ranges selected for each drug and investigational agent were based upon clinically achievable concentrations if the clinical Cmax of the agent was known.
Compounds. The drugs and investigational agents: cirtuvivint (SM08502; NSC835563), CC-671 (NSC850746), vemurafenib (NSC761431), tapotoclax (NSC804041), sotorasib (NSC818433), adagrasib (NSC831453), MRTX-1133 (NSC836407), BAY2416964 (NSC825713), copanlisib (NSC816437), inavolisib (NSC800729), abemaciclib (NSC768073), osimertinib (NSC779217), entinostat (NSC756642), eltanexor (KPT-8602, NSC794443), venetoclax (NSC766270), ceralasertib (NSC777638), bortezomib (NSC756655), olaparib (NSC753686), talazoparib (NSC767125), alisertib (NSC759677), peposertib (NSC802822), gemcitabine (NSC613327), 5-fluorouracil (NSC19893), SN-38 (NSC673596), oxaliplatin (NSC266046), paclitaxel (NSC125973), and doxorubicin (NSC123127), were obtained from the National Cancer Institute (NCI) Developmental Therapeutics Program Chemical Repository. The FDA-approved anticancer drug set is available from the Developmental Therapeutics Program at https://dtp.cancer.gov/organization/dscb/obtaining/available plates.htm. […] The stock solutions were prepared in dimethyl sulfoxide (DMSO, Sigma-Aldrich, St. Louis, MO, cat. D2650), except for the platinum complexes which were prepared in saline (Quality Biological, Gaithersburg, MD, cat. 114-055-101), at 800-fold the tested concentration and stored at -70 degrees C prior to their use. All drugs and investigational agents were tested over a range starting from a high concentration at or near the clinical Cmax and decreasing in half-log increments. If the clinical Cmax for an agent had not been determined, the highest concentration tested was 10 microM.
Cell Culture. All cells were maintained in an incubator at 37 degrees C and 5% CO2 with 95% humidity. The PDC lines were cultured according to standard operating procedures established by the NCI PDMR. Briefly, all PDCs were thawed and cultured in Matrigel-coated flasks prepared with a working solution of 1X Ham's F-12 nutrient mix, without supplementation (Invitrogen, Waltham, MA, cat. 11765054), 100 U/mL penicillin-streptomycin (Invitrogen, cat. 15140122), and 2.5% Matrigel (Corning Inc., Corning, NY, cat. 354248) for the first three passages. The 947758-054-R-J2-PDC line was cultured in 6B/Colon 1A media, which includes advanced DMEM/F-12 (Thermo Fisher Scientific, cat. 12634028), 10 mM HEPES (Thermo Fisher Scientific, cat. 15630080), 1X GlutaMAX supplement (Thermo Fisher Scientific, cat. 35050061), 0.1 mg/mL primocin (InvivoGen, cat. ant-pm-2), 10% defined fetal bovine serum, heat inactivated (HyClone Laboratories Inc., cat. SH30070.03HI), 1.25 mM N-Acetyl-L-cysteine (Sigma-Aldrich, cat. A9165), 10 mM nicotinamide (Sigma-Aldrich, cat. N0636), 1X B-27 supplement (Thermo Fisher Scientific, cat. 17504044), 1X N-2 supplement (Thermo Fisher Scientific, cat. 17502048), and 10 microM Y-27632 dihydrochloride (Tocris Bioscience, cat. 1254). The 876862-298-R-J1-PDC was cultured in 6E media, which includes all 6B/Colon 1A media components plus 50% L-WRN conditioned media (ATCC, cat. CRL-3276), 50 ng/mL recombinant human EGF recombinant protein (hEGF; Thermo Fisher Scientific, cat. PHG0311), 10 ng/mL recombinant human fibroblast growth factor 10 (hGFG-10; PeproTech, cat. 100-26), 1 ng/mL recombinant human fibroblast growth factor 2 (hFGF-2; PeproTech, cat. 100-18B), and 1 µM prostaglandin E2 (PGE2; Tocris, cat. 2296). The 227483-062-R1-J1-PDC line was cultured in Panc media, containing all 6E components except hFGF-2, with the addition of 500 nM SB-431542 (Selleckchem, cat. S1067) and 10 nM gastrin (Tocris, cat. 3006). […]

[1] = second compound 0.0316 µM, first compound 0.0316 µM
[2] = second compound 0.0316 µM, first compound 0.1 µM
[3] = second compound 0.0316 µM, first compound 0.316 µM
[4] = second compound 0.0316 µM, first compound 1 µM
[5] = second compound 0.0316 µM, first compound 3.16 µM
[6] = second compound 0.0316 µM, first compound 10 µM
[7] = second compound 0.1 µM, first compound 0.0316 µM
[8] = second compound 0.1 µM, first compound 0.1 µM
[9] = second compound 0.1 µM, first compound 0.316 µM
[10] = second compound 0.1 µM, first compound 1 µM
[11] = second compound 0.1 µM, first compound 3.16 µM
[12] = second compound 0.1 µM, first compound 10 µM
[13] = second compound 0.316 µM, first compound 0.0316 µM
[14] = second compound 0.316 µM, first compound 0.1 µM
[15] = second compound 0.316 µM, first compound 0.316 µM
[16] = second compound 0.316 µM, first compound 1 µM
[17] = second compound 0.316 µM, first compound 3.16 µM
[18] = second compound 0.316 µM, first compound 10 µM
[19] = second compound 1 µM, first compound 0.0316 µM
[20] = second compound 1 µM, first compound 0.1 µM
[21] = second compound 1 µM, first compound 0.316 µM
[22] = second compound 1 µM, first compound 1 µM
[23] = second compound 1 µM, first compound 3.16 µM
[24] = second compound 1 µM, first compound 10 µM
[25] = second compound 3.16 µM, first compound 0.0316 µM
[26] = second compound 3.16 µM, first compound 0.1 µM
[27] = second compound 3.16 µM, first compound 0.316 µM
[28] = second compound 3.16 µM, first compound 1 µM
[29] = second compound 3.16 µM, first compound 3.16 µM
[30] = second compound 3.16 µM, first compound 10 µM
[31] = second compound 10 µM, first compound 0.0316 µM
[32] = second compound 10 µM, first compound 0.1 µM
[33] = second compound 10 µM, first compound 0.316 µM
[34] = second compound 10 µM, first compound 1 µM
[35] = second compound 10 µM, first compound 3.16 µM
[36] = second compound 10 µM, first compound 10 µM
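Further: spheroids exposed to the agents for 7 days before readout.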

Q: `CCCS(=O)(=O)Nc1ccc(F)c(C(=O)c2c[nH]c3ncc(-c4ccc(Cl)cc4)cc23)c1F` + CN1CCN(c2cc(C(=O)Nc3cc4cc(-c5cnn(C)c5)ccc4cn3)ccn2)CC1 was tested. Which IC50 (second compound 0.0316 µM) did it give?
A: > 10000 nM

Q: What about the IC50 (second compound 0.1 µM) of the same compound?
A: > 10000 nM

Q: And the IC50 (second compound 0.316 µM)?
A: 6170 nM

Q: What about the IC50 (second compound 1 µM) of the same compound?
A: < 31.6 nM

Q: What about the IC50 (second compound 3.16 µM) of the same compound?
A: < 31.6 nM

Q: And the IC50 (second compound 10 µM)?
A: < 31.6 nM

Q: What about the viability, T/C [1] of the same compound?
A: 92.3%

Q: And the viability, T/C [2]?
A: 87.7%

Q: What about the viability, T/C [3] of the same compound?
A: 95%

Q: What about the viability, T/C [4] of the same compound?
A: 98%

Q: And the viability, T/C [5]?
A: 98.6%

Q: What about the viability, T/C [6] of the same compound?
A: 68.1%

Q: What about the viability, T/C [7] of the same compound?
A: 94.2%

Q: What about the viability, T/C [8] of the same compound?
A: 82%

Q: And the viability, T/C [9]?
A: 90.1%

Q: What about the viability, T/C [10] of the same compound?
A: 92%

Q: What about the viability, T/C [11] of the same compound?
A: 81.3%

Q: And the viability, T/C [12]?
A: 57.3%

Q: What about the viability, T/C [13] of the same compound?
A: 67.4%

Q: What about the viability, T/C [14] of the same compound?
A: 70.3%

Q: What about the viability, T/C [15] of the same compound?
A: 70.9%

Q: And the viability, T/C [16]?
A: 76.6%

Q: And the viability, T/C [17]?
A: 65.7%

Q: What about the viability, T/C [18] of the same compound?
A: 37.9%

Q: What about the viability, T/C [19] of the same compound?
A: 5.57%

Q: And the viability, T/C [20]?
A: 6.02%

Q: And the viability, T/C [21]?
A: 6.22%

Q: What about the viability, T/C [22] of the same compound?
A: 7.67%

Q: And the viability, T/C [23]?
A: 5.81%

Q: And the viability, T/C [24]?
A: 5.48%

Q: And the viability, T/C [25]?
A: 1.49%

Q: What about the viability, T/C [26] of the same compound?
A: 1.01%

Q: And the viability, T/C [27]?
A: 1.22%

Q: What about the viability, T/C [28] of the same compound?
A: 1.3%

Q: What about the viability, T/C [29] of the same compound?
A: 2.36%

Q: And the viability, T/C [30]?
A: 1.6%

Q: And the viability, T/C [31]?
A: 1.91%

Q: What about the viability, T/C [32] of the same compound?
A: 0.63%

Q: And the viability, T/C [33]?
A: 1.71%

Q: What about the viability, T/C [34] of the same compound?
A: 0.77%

Q: And the viability, T/C [35]?
A: 1.81%

Q: And the viability, T/C [36]?
A: 0.48%

Q: What does the source list for `COC1C=CCC(C)C(C)S(=O)(=O)NC(=O)c2ccc3c(c2)N(CC2CCC21)CC1(CCCc2cc(Cl)ccc21)CO3` (centres undefined) + CN1CCN(c2cc(C(=O)Nc3cc4cc(-c5cnn(C)c5)ccc4cn3)ccn2)CC1?
A: IC50 (second compound 0.0316 µM): 4530 nM; IC50 (second compound 0.1 µM): 2780 nM; IC50 (second compound 0.316 µM): 1470 nM; IC50 (second compound 1 µM): < 31.6 nM; IC50 (second compound 3.16 µM): < 31.6 nM; IC50 (second compound 10 µM): < 31.6 nM; viability, T/C [1]: 98.8%; viability, T/C [2]: 106%; viability, T/C [3]: 96.2%; viability, T/C [4]: 79.5%; viability, T/C [5]: 60.4%; viability, T/C [6]: 30.1%; viability, T/C [7]: 93.3%; viability, T/C [8]: 86.1%; viability, T/C [9]: 78.8%; viability, T/C [10]: 78%; viability, T/C [11]: 45.6%; viability, T/C [12]: 27.7%; viability, T/C [13]: 60.6%; viability, T/C [14]: 74.7%; viability, T/C [15]: 63.6%; viability, T/C [16]: 53.9%; viability, T/C [17]: 39.6%; viability, T/C [18]: 21%; viability, T/C [19]: 7.76%; viability, T/C [20]: 8.39%; viability, T/C [21]: 6.69%; viability, T/C [22]: 4.97%; viability, T/C [23]: 4.86%; viability, T/C [24]: 2.21%; viability, T/C [25]: 1.75%; viability, T/C [26]: 0.92%; viability, T/C [27]: 1.25%; viability, T/C [28]: 1.45%; viability, T/C [29]: 1.53%; viability, T/C [30]: 0.93%; viability, T/C [31]: 1.98%; viability, T/C [32]: 1.21%; viability, T/C [33]: 0.68%; viability, T/C [34]: 0.74%; viability, T/C [35]: 0.47%; viability, T/C [36]: 1.7%
